Patent US20240238423A9, “TETRAHYDROISOQUINOLINE HETEROBIFUNCTIONAL BCL-XL DEGRADERS” (Treeline Biosciences, Inc., priority 2022, published 2024)
Read-outs that look alike come from different tables or passages of the source.

Target: T1, Human BCL-XL protein (N-terminal HiBiT tagged BCL-XL in HT1080 cells) (Homo sapiens, UniProt Q07817)
T1 construct: expressed in transfected cells; host or cells: HT-1080 (ATCC CCL-121), stably transduced with lentivirus pLV-UBC-N-HiBiT-BCL-XL-PGK-puro and selected with puromycin
Assay: HiBiT based degradation assay
Assay type: cell-based
Conditions: HT1080 cells expressing HiBiT-BCL-XL; for Ymin (6 h) / Ymin (24 h): BCL-XL degradation normalized with DMSO control; for DC50: BCL-XL degradation
In short: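 HT1080 cells stably transduced by lentivirus with N-terminally HiBiT-tagged human BCL-XL and kept under 1 μg/mL puromycin selection were seeded at three thousand cells per well in 40 μL RPMI 1640 into 384-well plates pre-spotted with compounds across a concentration range. Luminescence was read on a PHERAstar FSX, normalized to DMSO, and fitted with a four-parameter logistic model.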

T1 sequence (Q07817 whole entry): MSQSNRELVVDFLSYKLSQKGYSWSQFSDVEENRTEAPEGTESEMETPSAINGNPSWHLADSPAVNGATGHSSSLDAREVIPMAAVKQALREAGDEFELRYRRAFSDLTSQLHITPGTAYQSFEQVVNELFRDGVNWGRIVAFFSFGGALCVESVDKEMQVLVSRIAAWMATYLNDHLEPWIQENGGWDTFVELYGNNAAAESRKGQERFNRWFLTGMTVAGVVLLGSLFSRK

| Ymin (6 h) | Ymin (24 h) | DC50 (6 h, read-out: EC50 (6 h)) | DC50 (24 h, read-out: EC50 (24 h)) | SMILES |
| --- | --- | --- | --- | --- |
| B (50% ≤ Ymin < 70%) | A (Ymin < 50%) | < 100 nM | < 100 nM | Cc1c(OCCC[C@H]2CCCN(CC(=O)Nc3ccc4c(C5CCC(=O)NC5=O)nn(C)c4c3)C2)cccc1-c1ccc(N2CCc3cccc(C(=O)Nc4nc5ccccc5s4)c3C2)nc1C(=O)O (stereo partly drawn) [Compound 207b, 6-(8-(benzo[d]thiazol-2-ylcarbamoyl)-3,4-dihydroisoquinolin-2(1H)-yl)-3-(3-(3-((3R)-1-(2-((3-(2,6-dioxopiperidin-3-yl)-1-methyl-1H-indazol-6-yl)amino)-2-oxoethyl)piperidin-3-yl)propoxy)-2-methylphenyl)picolinic acid] |
| – | A (Ymin < 50%) | – | < 100 nM | Cc1cc(OCCC[C@@H]2CCN(CC(=O)Nc3ccc4c(C5CCC(=O)NC5=O)nn(C)c4c3)[C@H](C)C2)ccc1-c1ccc(N2CCc3cccc(C(=O)Nc4nc5ccccc5s4)c3C2)nc1C(=O)O (stereo partly drawn) [Compound 344b, 6-[8-(1,3-benzothiazol-2-ylcarbamoyl)-3,4-dihydro-1H-isoquinolin-2-yl]-3-[4-[3-[(2R,4R)-1-[2-[[3-(2,6-dioxo-3-piperidyl)-1-methyl-indazol-6-yl]amino]-2-oxo-ethyl]-2-methyl-4-piperidyl]propoxy]-2-methyl-phenyl]pyridine-2-carboxylic acid] |
| A (Ymin < 50%) | A (Ymin < 50%) | < 100 nM | < 100 nM | Cc1cc(OCCCC2CCN(CC(=O)Nc3ccc4c(C5CCC(=O)NC5=O)nn(C)c4c3)CC2)ccc1-c1ccc(N2CCc3cccc(C(=O)Nc4nc5ccccc5s4)c3C2)nc1C(=O)O (stereo not drawn) [Compound 184, 6-[8-(1,3-benzothiazol-2-ylcarbamoyl)-3,4-dihydro-1H-isoquinolin-2-yl]-3-[4-[3-[1-[2-[[3-(2,6-dioxo-3-piperidyl)-1-methyl-indazol-6-yl]amino]-2-oxo-ethyl]-4-piperidyl]propoxy]-2-methyl-phenyl]pyridine-2-carboxylic acid] |
| – | B (50% ≤ Ymin < 70%) | – | 100 to 1000 nM | Cc1c(OCCC[C@H]2CCN(CC(=O)Nc3ccc4c(C5CCC(=O)NC5=O)nn(C)c4c3)CC2(F)F)cccc1-c1ccc(N2CCc3cccc(C(=O)Nc4nc5ccccc5s4)c3C2)nc1C(=O)O (stereo partly drawn) [Compound 193b] |
| B (50% ≤ Ymin < 70%) | A (Ymin < 50%) | < 100 nM | < 100 nM | Cc1c(OCCN2CCN(CC(=O)N3CCN(c4ccc5c(C6CCC(=O)NC6=O)nn(C)c5c4)CC3)CC2)cccc1-c1ccc(N2CCc3cccc(C(=O)Nc4nc5ccccc5s4)c3C2)nc1C(=O)O (stereo not drawn) [Compound 141, 6-(8-(benzo[d]thiazol-2-ylcarbamoyl)-3,4-dihydroisoquinolin-2(1H)-yl)-3-(3-(2-(4-(2-(4-(3-(2,6-dioxopiperidin-3-yl)-1-methyl-1H-indazol-6-yl)piperazin-1-yl)-2-oxoethyl)piperazin-1-yl)ethoxy)-2-methylphenyl)picolinic acid] |
| – | A (Ymin < 50%) | – | < 100 nM | Cc1c(OCC[C@H]2CC23CCN(CC(=O)Nc2ccc4c(C5CCC(=O)NC5=O)nn(C)c4c2)CC3)cccc1-c1ccc(N2CCc3cccc(C(=O)Nc4nc5ccccc5s4)c3C2)nc1C(=O)O (stereo in doubt) [Compound 289b, 6-(8-(benzo[d]thiazol-2-ylcarbamoyl)-3,4-dihydroisoquinolin-2(1H)-yl)-3-(3-(2-((1R)-6-(2-((3-(2,6-dioxopiperidin-3-yl)-1-methyl-1H-indazol-6-yl)amino)-2-oxoethyl)-6-azaspiro[2.5]octan-1-yl)ethoxy)-2-methylphenyl)picolinic acid] |
